Source: ChEMBL document CHEMBL1138777, “Frontal affinity chromatography with MS detection of EphB2 tyrosine kinase receptor. 1. Comparison with conventional ELISA” (J Med Chem, 2004)

Experiments:
[1] = Binding constant for EphB2 tyrosine kinase
[2] = Inhibition of EphB2 receptor tyrosine kinase in ELISA assay

COc1cc2ncnc(Nc3ccc(Oc4ccccc4)cc3)c2cc1OC
Kd [1]: 58.4 µM | IC50 [2]: 86 µM

CN(C)c1ccc(/C=C2\C(=O)Nc3ccccc32)cc1
Kd [1]: 19.5 µM | IC50 [2]: 27.5 µM

CC(C)(C)n1nc(-c2ccc(Cl)cc2)c2c(N)ncnc21
Kd [1]: 36.5 µM | IC50 [2]: 52 µM

COc1cc2ncnc(Nc3cccc(Br)c3)c2cc1OC
Kd [1]: 8.1 µM | IC50 [2]: 10.2 µM

COc1cc2ncnc(Nc3cccc(O)c3)c2cc1OC
Kd [1]: 2.4 µM | IC50 [2]: 1.2 µM

CNc1cc2c(Nc3cccc(Br)c3)ncnc2cn1
Kd [1]: 21.9 µM | IC50 [2]: 34 µM
